Data taken from patent publication US20110039779A1, “IGF-1R BINDING PROTEINS AND ANTAGONISTS” (priority 2007, published 2011).
“And” between values parts separate entries of the source, which are not always exact repeats. Equal entries are not always repeated. Where two headings read alike, the source gives them in different places. Where a SMILES comes first, the peptide text is derived from it.

Tests used:
[1] = target: T1, His-tagged soluble recombinant human IGF-IR (srhIGF-1R-his) (Homo sapiens, UniProt P08069); experiment: ALPHAScreen competition binding assay, biotinylated hIGF-1
T1 construct: The extra-cellular domain of IGF-1R was obtained as a recombinant protein from R&D Systems; purchased R&D Systems, Inc., Minneapolis, Minn
Description: Binding Assays. […] Detection of the receptor ligand interaction was measured in an amplified luminescent proximity homogeneous assay (ALPHAScreen; BioSignal-Packard, Montreal). The assay was performed in 384-well Nunc™ white polystyrene microplates (Nalge Nunc International, Naperville, Ill.) with a final volume of 40 μL. […] Each concentration of competitor was assayed in duplicate. Non-specific binding was determined in the presence of 3×10^−5 M hIGF-1. The second step of the assay was to add acceptor beads and the incubation continued for 0.5 hr. The final step was to add donor beads and the incubation continued for an additional 1 hr. […] Primary data were background corrected, normalized to buffer controls and then expressed as % Specific Binding. The data were fit to a four-parameter non-linear regression analysis (y=min+(max-min)/(1+10̂((log IC50-x)*Hillslope))), which was used to determine IC50 values. The Z′-factor for this assay is greater than 0.7 (Z′=1-(3σ++3σ−)/|μ+−μ−|) and the signal-to-background (SB) ratio was between 40 and 70.

MCF7 cells [2] = target: T2, MCF7 cells (Homo sapiens, UniProt P08069); experiment: antagonism assay in starved MCF7 cells, luminescence viability, 72 hrs; format: cell-based; conditions: read-out: Cell; Table 11
Description: Additional binding and antagonism assays using candidate peptides were performed. […] Cell viability was determined by luminescence assay and IC50 was calculated using standard techniques.

SW480 cells = format: cell-based
Description: (§1) For cell growth/density studies, a mitochondrial activity assay was used, as exemplified by the following. Cells (SW480, MCF-7S8) were propagated in complete medium (DME: F12, 10% FCS (SW 480) or 5% FCS (MCF-7S8, P/S)), trypsinized, and seeded in 96 well plates as 10,000 cells/well in medium with 0.5% FCS. All wells in the periphery were omitted and only filled with medium. […] All treatments are made in triplicates. […] Treatment was continued for 48 hours (SW480 cells) or 72 hours (MCF-7S8 cells) before quantification of the cell density. Media was exchanged each day. Media and peptides were diluted in DMSO. When measuring cell density, the volume of each well was adjusted to […] Pre-diluted WST-1 (1 ml+1.5 ml DME:F12) was added as 25 μL to each well including background samples. Three wells with media only served as background controls. The cells were incubated for 90 min protected against light in an incubator.

MCF-7S8 cells = MCF-7S8 cells (Homo sapiens, UniProt P08069); experiment: cell growth/density, mitochondrial activity assay (WST-1), MCF-7S8; format: cell-based; conditions: one experiment only
Description: as §1

[3] = target: T3, IGF-1R on L6 (with mainly symmetric IGF-1R) (Rattus norvegicus, UniProt P24062); experiment: displacement of IGF-1 binding on L6 cells
T3 construct: L6 cells predominantly expressing IGF-1R and very limited insulin receptors; endogenous in cells; host or cells: L6 cells

MAPK44 = experiment: downstream signaling in L6 cells: MAPK44; format: cell-based; conditions: 3 nM IGF-1, read-out: MAPK44, IC50 for down regulation of the stimulation to the basal level
Description: (§2) The tyrosine phosphorylation of IRS signaling (the 180 kDa band on a tyrosine phosphor Western blot) as well as activation of effectors MAPK 44 and 42 and PKB were analyzed by using antibodies specific for their active forms using methods substantially similar to those described in Example 14 of the '246 PCT application.
(§3) The effect of select peptides on downstream signaling (MAPK44, MAPK42, PKB/Akt, IRS-1, and IGF-1R) was also measured by studying the signaling in L6 cells predominantly expressing IGF-1R and very limited insulin receptors. […] The antagonistic effect of the peptides can be seen to affect all the downstream signaling from the IGF-1R.

[4] = test system: IGF-1R, IRS-1, MAPK42/44 and PKB/Akt; experiment: IGF-1 induced phosphorylation (IGF-1R, IRS-1, MAPK42/44, PKB/Akt) in L6 and L6 hIR cells, summary in description; format: cell-based; conditions: read-out: phosphorylation of IGF-1R and MAPK42/44 in response to IGF-1 treatment, IC50
Description: The activation of HIR or HIGF-1R in adipocytes was measured by stimulating the cells and studying the level of tyrosine phosphorylation (Western blot) of the insulin receptor/IGF-1R. […] The IGF-1R will be present in symmetric homodimer complex as well as in the heterodimer with half insulin receptor.
as §2, §3

[5] = test system: L6 hIR (with mainly hybrid IGF-1R/IR); experiment: displacement of IGF-1 binding on L6 hIR cells
insulin receptor/IGF-1R = experiment: tyrosine phosphorylation of insulin receptor/IGF-1R in L6-hIR cells (Western blot); format: cell-based
PKB/Akt = experiment: downstream signaling in L6 cells: PKB/Akt; format: cell-based; conditions: 3 nM IGF-1, read-out: PKB/Akt, IC50 for down regulation of the stimulation to the basal level
Description: as §2, §3

IRS-1 [6] = experiment: downstream signaling: IRS-1 tyrosine phosphorylation; format: cell-based
Description: as §2, §3

MAPK42 = experiment: downstream signaling in L6 cells: MAPK42; format: cell-based; conditions: 3 nM IGF-1, read-out: MAPK42, IC50 for down regulation of the stimulation to the basal level
Description: as §2, §3

IGF-IR = experiment: downstream signaling in L6 cells: IGF-IR; format: cell-based; conditions: 3 nM IGF-1, read-out: IGF-IR, IC50 for down regulation of the stimulation to the basal level
Description: as §2, §3

[7] = test system: SGBS adipocytes transfected with HIR-encoding DNA; experiment: 3H glucose incorporation (insulin agonist activity) in SGBS adipocytes; format: cell-based
Description: Insulin increases uptake of ^3H glucose into adipocytes and its conversion into lipid. Incorporation of ^3H into the lipid phase was determined by partitioning of lipid phase into a scintillant mixture, which excludes water-soluble ^3H products. […] The results are expressed as increase relative to full insulin response.

IRS-1 [8] = experiment: IRS-1 phosphorylation in MCF7 cells (immunoprecipitation, Western blot); format: cell-based, human; conditions: 0.5 nM IGF-1, 10 minutes, peptides 30 μM
Description: Preparation of whole-cell lysates, immunoprecipitation, and Western blot analysis. For qualitative IRS-1 phosphorylation analysis, MCF7 cells in monolayer cultures (about 80% of confluency) were used. […] After treatment, cells were rinsed twice with ice-cold PBS containing 0.2 mM PMSF and 1 mM Na3VO4 (all from SIGMA). Cells were scraped into the same buffer and pelleted by centrifugation at 200 g for 3 min. […] Cell lysates were cleared by centrifugation for 5 min at 14 000 g and the resulting supernatant was snap-frozen in EtOH-dry ice and stored at −80° C. The protein concentration was determined using the Dc Protein Assay Kit (Bio-Rad Laboratories).
Immunoprecipitations were performed with pre-cleared lysates for 4 hours at […] using 0.3-0.5 mg of total protein with 1 μg of polyclonal anti-IRS-1 antibody (Upstate Biotechnology), and 25 μL of Protein A/agarose slurry (SIGMA). Agarose beads with immobilized proteins were washed 3 times with IP wash buffer (50 mM Tris pH 7.5 (GibcoBRL), 150 mM NaCl, 1 mM Na3VO4, 0.2 mM PMSF). […]
Immunoprecipitates were subjected to SDS-PAGE on 4-15% Tris-HCl Ready Gels and transferred to Trans-Blot Transfer Medium nitrocellulose membranes (both from Bio-Rad Laboratories). […] Blots were exposed to an enhanced […] substrate (ECL Western Blotting Analysis System, Amersham Pharmacia Biotech). […]

MiaPaCa cells = experiment: cell assay (WST-1), antagonism of IGF-1, MiaPaCa; format: cell-based, human; conditions: 5×10^−8 M IGF-1; 72 h; FIG. 10C
Description: (§4) Cell Assays. MCF7 or MiaPaCa cells were plated in 96 well plates at a concentration of 3×10^3 cells/well in 75 μL of serum-free RPMI-1640 and incubated overnight at 37° C. Dilutions of the peptides were prepared in a separate working plate and 75 μL added to the cells. […] Plates were incubated for 48-72 hours at 37° C. Viability was measured by the addition of 10 μL WST-1/well (Roche) as per the manufacturer's instructions.

MCF7 cells [9] = target: T2, MCF7 cells; experiment: cell assay (WST-1), antagonism of IGF-1, MCF7; format: cell-based; conditions: 5×10^−8 M IGF-1; 72 h; FIG. 10B
Description: as §4
The cells were treated as described in the materials and methods section. […] The data are presented as percent inhibition and to determine binding kinetic parameters data were fit to a four-parameter logistic equation.

[10] = read-out: IC50 in SW480 (M) in presence of IGF-1/alone: in presence of IGF-1, first value of the cell: concentration needed to blunt the effect of 10 nM IGF-1, cells in words only = effect as reported, 48 hours

T1 sequence (P08069 31-736 limits assumed): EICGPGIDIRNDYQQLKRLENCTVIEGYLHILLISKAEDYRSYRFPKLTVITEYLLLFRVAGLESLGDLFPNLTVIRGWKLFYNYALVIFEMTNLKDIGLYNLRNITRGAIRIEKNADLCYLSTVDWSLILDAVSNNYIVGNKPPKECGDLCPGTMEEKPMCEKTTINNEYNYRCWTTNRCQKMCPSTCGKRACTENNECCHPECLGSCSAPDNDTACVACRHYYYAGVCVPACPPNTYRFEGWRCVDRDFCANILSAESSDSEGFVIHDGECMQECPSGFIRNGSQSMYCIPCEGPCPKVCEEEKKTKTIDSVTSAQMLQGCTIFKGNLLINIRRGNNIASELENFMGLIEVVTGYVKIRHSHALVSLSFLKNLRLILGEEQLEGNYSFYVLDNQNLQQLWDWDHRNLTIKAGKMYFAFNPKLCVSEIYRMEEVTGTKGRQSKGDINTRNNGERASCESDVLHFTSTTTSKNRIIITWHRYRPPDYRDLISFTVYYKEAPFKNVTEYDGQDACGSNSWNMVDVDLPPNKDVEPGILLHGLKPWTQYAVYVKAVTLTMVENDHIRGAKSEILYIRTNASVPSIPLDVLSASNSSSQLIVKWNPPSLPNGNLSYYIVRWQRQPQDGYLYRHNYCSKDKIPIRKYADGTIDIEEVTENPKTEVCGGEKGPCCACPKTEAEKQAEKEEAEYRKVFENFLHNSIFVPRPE
T1 sequence (P08069 741-935 limits assumed): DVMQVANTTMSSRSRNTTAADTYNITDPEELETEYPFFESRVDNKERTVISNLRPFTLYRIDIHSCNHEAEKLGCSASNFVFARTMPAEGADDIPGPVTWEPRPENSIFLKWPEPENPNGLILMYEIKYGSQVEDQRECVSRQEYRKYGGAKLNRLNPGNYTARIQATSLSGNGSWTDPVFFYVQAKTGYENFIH
T2 sequence (P08069 31-736): as the sequence (P08069 31-736 limits assumed) above
Chain of MCF-7S8 cells (P08069 31-736): as the sequence (P08069 31-736 limits assumed) above
Chain of L6 hIR (with mainly hybrid IGF-1R/IR) (P24062 31-737 limits assumed): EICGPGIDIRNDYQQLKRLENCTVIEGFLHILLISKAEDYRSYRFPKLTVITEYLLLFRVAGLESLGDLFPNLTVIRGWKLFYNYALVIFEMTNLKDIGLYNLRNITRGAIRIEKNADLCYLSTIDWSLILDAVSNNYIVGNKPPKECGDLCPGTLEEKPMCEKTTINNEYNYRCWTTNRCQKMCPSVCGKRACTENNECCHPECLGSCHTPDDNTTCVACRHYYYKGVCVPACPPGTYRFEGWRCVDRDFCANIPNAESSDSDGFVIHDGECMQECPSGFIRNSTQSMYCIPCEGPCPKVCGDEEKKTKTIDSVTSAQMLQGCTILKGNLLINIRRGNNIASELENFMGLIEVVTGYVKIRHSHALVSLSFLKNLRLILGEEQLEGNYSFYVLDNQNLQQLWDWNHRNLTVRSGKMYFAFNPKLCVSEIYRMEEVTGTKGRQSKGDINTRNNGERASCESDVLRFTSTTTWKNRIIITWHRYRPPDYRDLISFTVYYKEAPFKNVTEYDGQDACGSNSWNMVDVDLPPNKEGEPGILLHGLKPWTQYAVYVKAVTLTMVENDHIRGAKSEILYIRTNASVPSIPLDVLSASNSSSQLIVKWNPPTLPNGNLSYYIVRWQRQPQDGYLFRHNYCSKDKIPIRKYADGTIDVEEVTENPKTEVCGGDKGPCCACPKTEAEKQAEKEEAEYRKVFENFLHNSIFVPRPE
Chain of L6 hIR (with mainly hybrid IGF-1R/IR) (P24062 742-1370 limits assumed): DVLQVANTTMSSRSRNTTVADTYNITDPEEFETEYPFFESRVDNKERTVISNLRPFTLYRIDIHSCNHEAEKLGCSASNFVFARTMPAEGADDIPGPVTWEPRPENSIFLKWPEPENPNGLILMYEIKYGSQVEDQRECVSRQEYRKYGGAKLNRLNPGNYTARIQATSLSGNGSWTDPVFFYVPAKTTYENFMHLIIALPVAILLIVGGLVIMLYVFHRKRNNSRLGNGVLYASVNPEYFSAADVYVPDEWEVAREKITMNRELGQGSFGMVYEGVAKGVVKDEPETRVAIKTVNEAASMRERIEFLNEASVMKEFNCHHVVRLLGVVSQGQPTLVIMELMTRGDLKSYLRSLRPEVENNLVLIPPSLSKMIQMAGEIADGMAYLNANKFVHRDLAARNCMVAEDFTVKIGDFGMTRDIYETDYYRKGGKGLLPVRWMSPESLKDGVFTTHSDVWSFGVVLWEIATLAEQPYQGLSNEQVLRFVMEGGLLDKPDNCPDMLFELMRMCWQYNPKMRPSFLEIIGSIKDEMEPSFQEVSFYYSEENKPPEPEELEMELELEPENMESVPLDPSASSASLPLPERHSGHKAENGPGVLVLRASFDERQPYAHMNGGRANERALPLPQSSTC
T3 sequence (P24062 31-737 limits assumed): as the sequence (P24062 31-737 limits assumed) above
T3 sequence (P24062 742-1370 limits assumed): as the sequence (P24062 742-1370 limits assumed) above

## CC(C)C[C@H](NC(=O)[C@H](CS)NC(=O)[C@H](CO)NC(=O)[C@H](Cc1ccc(O)cc1)NC(=O)[C@H](Cc1ccccc1)NC(=O)[C@@H](N)[C@@H](C)O)C(=O)N[C@@H](C)C(=O)N[C@@H](CO)C(=O)N[C@@H](CC(C)C)C(=O)N[C@@H](CC(C)C)C(=O)N[C@H](C(=O)NCC(=O)N[C@H](C(=O)N1CCC[C@H]1C(=O)N[C@@H](CCC(N)=O)C(=O)N1CCC[C@H]1C(=O)N[C@@H](CC(N)=O)C(=O)N[C@@H](CCCNC(=N)N)C(=O)NCC(=O)N1CCC[C@H]1C(=O)N[C@@H](Cc1c[nH]c2ccccc12)C(=O)N[C@@H](CCC(=O)O)C(=O)N[C@@H](CCCNC(=N)N)C(=O)N[C@@H](CS)C(=O)N[C@@H](CCCNC(=N)N)C(=O)O)[C@@H](C)O)[C@@H](C)O [RP6] (H-TFYSCLASLLTGTPQPNRGPWERCR-OH)
[1]
  IC50: 2700 nM
MCF7 cells [2]
  IC50: 9000 nM

## ESYGDCRDRPCGDAPNFYDWFVQQASE [Peptide F270]
SW480 cells; first value of the cell: concentration needed to blunt the effect of 10 nM IGF-1, cells in words only = effect as reported, 48 hours
  IC50 in SW480 (M) in presence of IGF-1/alone: in presence of IGF-1: agonistic?
SW480 cells; [10]
  IC50: 2e-06 M
MCF-7S8 cells
  effect on MCF-7: agonistic effects

## SFYSCLESLVQGPAEKSRGQWEGCRK [Peptide F293]
[3]
  concentration displacing IGF-1 binding to IGF-1R on L6: 150 nM
MAPK44
  IC50: 500 nM
[4]
  IC50: 500 nM
[5]
  concentration displacing IGF-1 binding in L6 hIR: 150 nM
Insulin receptor/IGF-1R
  inhibition of IGF-1 induced versus insulin induced phosphorylation: more effective on IGF-1 induced phosphorylation as compared to insulin induced phosphorylation
Insulin receptor/IGF-1R; 2 μM peptide, 10 min
  effect on insulin stimulated tyrosine phosphorylation: marginal effect
  effect on tyrosine phosphorylation by IGF-1: inhibited
PKB/Akt
  IC50: > 1000 nM
IRS-1 [6]; FIG. 4, 10 min
  effect on IGF-1 stimulated IRS-1 phosphorylation: clearly inhibits the IGF-1 stimulated IRS-1 phosphorylation
IRS-1 [6]; L6 cells, 3 nM IGF-1, read-out: IRS-1, IC50 for down regulation of the stimulation to the basal level
  IC50: > 1000 nM
MAPK42
  IC50: 1000 nM
SW480 cells; read-out: IC50 in SW480 (M) in presence of IGF-1/alone: alone, second value of the cell: concentration needed to inhibit basal level in 0.5% FCS
  IC50: 1e-07 M
SW480 cells; without IGF-1
  inhibition of basal growth of SW480, doses: inhibition of basal growth was observed
IGF-IR
  IC50: 500 nM
[7]; SGBS adipocytes, FIGS. 1A and 1B
  effect on glucose uptake induced by insulin or IGF-1: neither peptide F138 nor peptide F293 has any substantial effect on glucose uptake induced by insulin or IGF-1
[7]; SGBS cells
  doses not affecting glucose uptake in response to insulin/IGF-1: < 5 µM

## SFYSCLESLVNGPAEKSRGQWDGCRK [Peptide F250]
[1]; FIG. 10A
  competition of IGF-1 binding: competes IGF-1 binding
IRS-1 [8]
  IGF-1-induced phosphorylation of IRS-1: inhibited
SW480 cells; [10]
  IC50: 2e-06 M and 1e-06 M
MiaPaCa cells
  antagonism of IGF-1 activity in MiaPaCa cells: antagonism of IGF-1 activity in MiaPaCa cells
MCF7 cells [9]
  antagonism of IGF-1 activity in MCF-7 cells: antagonism of IGF-1 activity in MCF-7 cells
